Test results taken from ChEMBL document CHEMBL2007661, “Compounds: GSK PKIS; Assays: UNC Frye lab” (2012).

Target: T1, Tyrosine-protein kinase Mer (Homo sapiens) (UniProt Q12866)
T1 sequence (whole entry): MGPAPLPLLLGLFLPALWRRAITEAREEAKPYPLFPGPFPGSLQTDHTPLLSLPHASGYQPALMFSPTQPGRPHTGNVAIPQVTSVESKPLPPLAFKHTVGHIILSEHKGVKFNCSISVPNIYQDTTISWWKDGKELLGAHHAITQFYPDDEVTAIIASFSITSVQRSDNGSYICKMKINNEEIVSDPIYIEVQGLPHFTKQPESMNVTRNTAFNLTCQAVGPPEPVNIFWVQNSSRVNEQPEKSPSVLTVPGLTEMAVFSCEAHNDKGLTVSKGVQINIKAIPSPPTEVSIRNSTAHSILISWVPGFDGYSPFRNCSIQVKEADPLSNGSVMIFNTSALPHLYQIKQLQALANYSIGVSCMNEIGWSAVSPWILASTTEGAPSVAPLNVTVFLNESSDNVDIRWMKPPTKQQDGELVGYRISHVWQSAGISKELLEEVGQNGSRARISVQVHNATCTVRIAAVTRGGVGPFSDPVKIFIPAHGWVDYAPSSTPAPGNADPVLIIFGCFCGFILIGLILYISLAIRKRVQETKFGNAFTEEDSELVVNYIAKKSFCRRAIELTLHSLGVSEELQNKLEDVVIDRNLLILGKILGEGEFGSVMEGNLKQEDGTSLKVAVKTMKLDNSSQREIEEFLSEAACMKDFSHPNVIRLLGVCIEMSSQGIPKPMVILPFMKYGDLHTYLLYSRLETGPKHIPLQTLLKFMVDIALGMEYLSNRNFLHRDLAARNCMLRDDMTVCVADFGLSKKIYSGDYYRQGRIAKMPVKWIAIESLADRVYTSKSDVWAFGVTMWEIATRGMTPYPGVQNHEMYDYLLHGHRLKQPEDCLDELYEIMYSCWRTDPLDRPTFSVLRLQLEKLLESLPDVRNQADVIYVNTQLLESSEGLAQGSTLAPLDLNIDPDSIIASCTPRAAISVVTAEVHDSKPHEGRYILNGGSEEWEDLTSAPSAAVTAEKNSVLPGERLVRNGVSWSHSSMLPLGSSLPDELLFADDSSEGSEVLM
Conditions: at 10 µM

| Compound | inhibition [%] |
| --- | --- |
| CCOc1nccc2c1nc(-c1nonc1N)n2CC | -3 |
| NS(=O)(=O)c1ccc(N/N=C2\C(=O)Nc3ccc(-c4cnco4)cc32)cc1 | 16 |
| CS(=O)(=O)CCNCc1nc(-c2ccc3ncnc(Nc4ccc(F)c(Cl)c4)c3c2)cs1 | -6 |
| N#Cc1ccc(Oc2nccc(-c3c(-c4ccc(F)cc4)ncn3C3CCNCC3)n2)cc1 | -1 |
| Cc1cc(O)cc(C)c1/C=C/c1cncc(-c2nn[nH]n2)c1 | -2 |
| CCNC(=O)O[C@H]1CN[C@H](C#Cc2cc3ncnc(Nc4ccc(OCc5cccc(F)c5)c(Cl)c4)c3s2)C1 | 2 |
| CCCNc1cccc(-n2ncc3c(N/N=C/c4ccncc4)ncnc32)c1 | 1 |
| CCn1c(-c2nonc2N)nc2c(C#CC(C)(C)O)nc(OC[C@H](N)c3ccccc3)cc21 | -2 |
| CN1CCN(CCCNc2nc3ccc(Oc4ccc(NC(=O)Nc5cc(C(F)(F)F)ccc5F)cc4)cc3[nH]2)CC1 | -1 |
| ON=C1CCc2cc(-c3nc(C4CCNCC4)[nH]c3-c3ccncc3)ccc21 | 38 |
| CS(=O)(=O)CCNCc1coc(-c2ccc3ncnc(Nc4ccc(OCc5ccccc5)cc4)c3c2)c1 | 84 |
| COc1ccc2ncnc(Nc3ccc(OCc4ccccc4)cc3)c2c1 | -4 |
| Cc1cc(O)cc(C)c1/C=C/c1cncc(C(N)=O)c1 | -6 |
| COc1cc(N2CCN(C(C)C)CC2)ccc1Nc1nc(Nc2cccc(F)c2C(=O)O)c2cc[nH]c2n1 | -2 |
| CNC(=O)c1cncc(/C=C/c2c(C)cccc2C)c1 | -3 |
| CCN(CC)S(=O)(=O)c1ccc(OC)c(Nc2ncc(-c3ccccc3)o2)c1 | 13 |
| CCn1c(-c2nonc2N)nc2c(C#CC(C)(C)O)nc(O[C@@H](CN)c3ccccc3)cc21 | -9 |
| CCCN1CCCC(c2ccc(Nc3nc(Nc4cc(F)ccc4C(N)=O)c4cc[nH]c4n3)c(OC)c2)C1 (stereo not given) | 5 |
| N#Cc1c(NC(=O)CN2CCOCC2)sc2c1CCCC2 | -1 |
| COc1ccccc1Nc1ncc(-c2ccccc2)o1 | 3 |
| COc1ccc2cc(-c3c(-c4ccncc4)nc(-c4ccc(S(C)(=O)=O)cc4C)n3C)ccc2c1 | 0 |
| C/C(Nc1ccc(S(N)(=O)=O)cc1)=C1/C(=O)Nc2ccccc21 | -2 |
| COc1cccc(-n2ncc3c(N/N=C/c4ccc(C(=O)NCCN(C)C)cc4)ncnc32)c1 | 49 |
| CS(=O)(=O)Nc1ccc(-c2ccc3c(NC(=O)C4CC4)n[nH]c3c2)cc1 | 1 |
| Fc1ccc(-c2c(-c3ccncc3)nc3n2CCS3)cc1 | 10 |
| CN(C)CCOc1ccc(-c2cc(-c3ccc4c(c3)CCC4=NO)c(-c3ccncc3)o2)cc1 | 1 |
| Cc1ccc2c(-c3ccnc(Nc4ccc5c(c4)OCCO5)n3)c(-c3ccc(C(F)(F)F)cc3)nn2n1 | -5 |

| Compound | inhibition [%] |
| --- | --- |
| COc1ccc(-c2nn3ncccc3c2-c2ccnc(Nc3ccc(Cl)c(C(F)(F)F)c3)n2)cc1 | 13 |
| CCn1c(-c2nonc2N)nc2cncc(C(=O)NCCNC)c21 | 81 |
| COc1cc2ncn(-c3cc(OCc4cccs4)c(C(N)=O)s3)c2cc1OC | 4 |
| Cc1ccc(C(=O)NC2CC2)cc1-c1ccc2[nH]ncc2c1 | 6 |
| CCc1nn2ncccc2c1-c1ccnc(NC2CC2)n1 | -4 |
| Cc1ccc(NC(=O)c2ccoc2)cc1-c1ccc(C(=O)NCC2CC2)cc1 | -4 |
| CCN(CC)Cc1ccc(Nc2nccc(-c3cnn4ncccc34)n2)cc1 | 5 |
| COc1ccc(CNC(=O)c2ccc(-c3cc(-c4nnc(C)o4)ccc3C)cc2)cc1 | 3 |
| Cc1nnc(-c2ccc(C)c(-c3ccc(C(=O)NCc4ccc(Cl)cc4)cc3)c2)o1 | 92 |
| NS(=O)(=O)c1cccc(N/C=C2\C(=O)Nc3ccccc32)c1 | 0 |
| O=C1NC(=O)C(c2cccc(Cl)c2)=C1Nc1ccc(O)c(Cl)c1 | 99 |
| NS(=O)(=O)c1ccc(NC=C2C(=O)Nc3ccc4ncsc4c32)cc1 | -5 |
| FC(F)(F)c1cccc(-c2nn3ncccc3c2-c2ccnc(Nc3ccc4c(c3)OCCO4)n2)c1 | -2 |
| Fc1ccc(-c2ncn(C3CCNCC3)c2-c2ccnc(Oc3ccc(F)c(F)c3)n2)cc1 | 67 |
| O=C1NC(=O)C(c2ccccc2Cl)=C1Nc1cccc(O)c1 | 18 |
| NC(=O)c1ccc2c(-c3ccnc(NCCCO)n3)c(-c3ccc(F)cc3)nn2c1 | -4 |
| CCOc1ccc2c(-c3ccnc(Nc4cccc(C(F)(F)F)c4)n3)cnn2n1 | -2 |
| Nc1ccc(C#Cc2cncnc2Nc2ccc(OCc3cccc(F)c3)c(Cl)c2)cc1 | 58 |
| CNC(=O)Oc1cc(C)c(/C=C/c2cncc(C(=O)NC)c2)c(C)c1 | 48 |
| CN(C)c1ccc2c(c1)/C(=C/Nc1ccc(S(N)(=O)=O)cc1)C(=O)N2 | 2 |
| CC1=C(C(=O)Nc2cc(Cl)c3[nH]ncc3c2)C(c2ccc(C(F)(F)F)cc2)CC(=O)N1 (stereo not given) | 18 |
| CN(C)CCOc1ccc(-c2nc(-c3ccncc3)c(-c3ccc4c(c3)CC/C4=N\O)[nH]2)cc1 | 3 |
| C[C@@H](Oc1cc(-n2cnc3ccc(OC[C@@H](O)CO)cc32)sc1C(N)=O)c1ccccc1Cl | -1 |
| NC(=O)c1cccc(Nc2nccc(Nc3cccc4[nH]ncc34)n2)c1 | 79 |
| O=C1Nc2ccccc2/C1=C/Nc1ccc(-n2cncn2)cc1 | 10 |
| CCS(=O)(=O)c1ccc(OC)c(Nc2ncc(-c3cccc(OC)c3)o2)c1 | -1 |
| O=C1Nc2ccc(I)cc2C1=Cc1cc(Br)c(O)c(Br)c1 | -2 |

| Compound | inhibition [%] |
| --- | --- |
| O=C1Nc2ccccc2/C1=C1\CCc2cc(O)ccc21 | 7 |
| N#Cc1ccc2c(-c3ccnc(NC4CC4)n3)c(-c3ccc(F)cc3)nn2c1 | 24 |
| COc1cc2ncn(-c3cc(OCCc4ccccc4)c(C(N)=O)s3)c2cc1OC | 51 |
| O=C(O[C@H]1CN[C@H](C#Cc2cc3ncnc(Nc4ccc5c(ccn5Cc5cc(F)ccc5F)c4)c3s2)C1)N1CCOCC1 | 100 |
| Fc1ccc(-c2cc(-c3c[nH]nc3-c3ccccn3)ccn2)cc1 | -3 |
| CC(=O)Nc1cccc(C#Cc2cncnc2Nc2ccc(OCc3cccc(F)c3)c(Cl)c2)c1 | -1 |
| CCS(=O)(=O)c1ccc(OC)c(Nc2ncc(-c3ccccc3Cl)o2)c1 | 6 |
| COc1cccc(-n2ncc3c(N/N=C/c4ccncc4)ncnc32)c1 | 84 |
| CN(C)c1cc2c(Nc3ccc4nc(Cc5ccccc5)[nH]c4c3)ncnc2cn1 | 2 |
| N#Cc1c(NC(=O)c2ccccc2F)sc2c1CCCC2 | -6 |
| CCn1c(-c2nonc2N)nc2c(C#CC(C)(C)O)nc(CN3CCCC3)cc21 | -6 |
| CN(C)c1cc2c(Nc3ccc4c(cnn4Cc4ccccc4)c3)ncnc2cn1 | 10 |
| COc1cccc(COc2cc(-n3cnc4ccccc43)sc2C(N)=O)c1 | 1 |
| COc1cc2ncn(-c3cc(O[C@H](C)c4ccccc4Cl)c(C(N)=O)s3)c2cc1OC | -8 |
| COc1ccc2c(-c3ccnc(Nc4cccc(OC(F)(F)F)c4)n3)cnn2n1 | 2 |
| CS(=O)(=O)CCNCc1cc(-c2cc3c(Nc4ccc(OCc5cccc(F)c5)c(Cl)c4)ncnc3s2)cs1 | -5 |
| Cc1ccc(Nc2ccnc(Nc3cccc(C(N)=O)c3)n2)cc1O | 93 |
| c1ccc(-c2n[nH]cc2-c2ccnc(-c3ccc(OCCN4CCOCC4)cc3)c2)nc1 | -1 |
| Cc1cc(-c2ccccn2)cc(C)c1/C=C/c1cncc(-c2nn[nH]n2)c1 | -7 |
| O=C1Nc2ccc(C(=O)c3ccco3)cc2C1=Cc1cc(Cl)c(O)c(Cl)c1 | -1 |
| CC(=O)NCc1cccc(C#Cc2cncnc2Nc2ccc(OCc3cccc(F)c3)c(Cl)c2)c1 | -7 |
| O=C(Nc1n[nH]c2nc(-c3ccc(O)cc3)c(Br)cc12)C1CC1 | 39 |
| CC1=C(C(=O)Nc2ccc3[nH]ncc3c2)C(c2ccc(F)cc2)NC(=O)N1 (stereo not given) | -2 |
| NS(=O)(=O)c1cccc(-c2cc3ccncc3cc2OCc2ccccc2)c1 | 74 |
| Cc1ccc(NC(=O)c2ccnc(N3CCCC3)c2)cc1-c1ccc(C(=O)NCC2CC2)cc1 | -1 |
| COc1ccc(-c2cc3c(N)ncnc3o2)cc1 | 5 |
